Columns and labels:
[1] = biological target: HIV-1 protease (Human immunodeficiency virus type 1 group M subtype B, UniProt P04585); test: HIV protease inhibition assay (quenched fluorogenic substrate, fluorescence energy transfer)
Protocol: HIV protease inhibitory activity was assessed using an adaptation of the method of Matayoshi. et al. [Matayoshi E. D. et al (1990).
Crude HIV-1 protease was prepared from E. coli pPTΔN. Cultures were grown at 30° in M9 medium supplemented with 0.2% casamino acids, 100 μg/ml ampicillin and 25 μg/ml thiamine until OD600=0.5-0.6, and the temperature was raised to 42° to induce expression of the protease. After 1.5 hours, the cells were harvested and the pellets stored at −70° until required.
The protease was prepared by lysis of the cells in a French pressure cell followed by precipitation of the enzyme with ammonium sulfate at 30% saturation.
The assay buffer comprised 0.1M sodium acetate pH 4.7, 8 mM EDTA, 0.2 M NaCl.
Tubes were incubated for 2 hours at 37° and the reaction was terminated by the addition of 500 μl of a 2:1 mixture of DMSO:50 mM Tricine pH 8.5. Fluorescence was measured in a fluorescence spectrophotometer, excitation λ=340 nm, emission λ=492 nm.

[2] = tested on: HIV-HXB2; test: Antiviral assay: protection of HIV-infected MT4 cells from cell death (MTT); type: cell-based; settings: Human immunodeficiency virus 1, 120 h; MT4 cells infected with HIV-HXB2; 5 days; MTT viability; rounded to nearest whole number
Protocol: Methods 20: 309-321]. The method is based on the ability of compounds to protect HIV-infected T lymphoblastoid cells (MT4 cells) from cell-death mediated by the infection. The endpoint of the assay was calculated as the concentration of compound at which the cell viability of the culture was preserved by 50% (‘50% inhibitory concentration’, IC50). The cell viability of a culture was determined by the uptake of soluble, yellow 3-[4,5-dimethylthiazol-2-yl]-2,5-diphenyltetrazolium bromide (MTT) and its reduction to a purple insoluble formazan salt. After solubilization, spectrophotometric methods were employed to measure the amount of formazan product.
MT4 cells were prepared to be in logarithmic-phase growth and a total of 2×10^6 cells infected with either the wild type or site directed mutant clones of HIV-HXB2 at a multiplicity of approximately 0.0001 infectious units of virus per cell in a total volume of between 200-500 μl. The cells were incubated with virus for one hour at 37° C. then washed in 0.01 M phosphate buffered saline, pH 7.2, and resuspensed in culture medium for incubation in culture with serial dilutions of test compound. The culture medium used was RPMI 1640 without phenol red, supplemented with penicillin, streptomycin, L-glutamine and 10% fetal calf serum (GM10).
Test compounds were prepared as 2 mM solutions in dimethyl sulphoxide (DMSO). Four replicate, serial 2-fold dilutions in GM10 were then prepared and 50 microliter amounts placed in 96-well plates over a final concentration range of […]. Fifty microliters GM10 and 3.75×10^4 infected cells were then added to each well. Control cultures containing no cells (blank), uninfected cells (100% viability; 4 replicates) and infected cells without compound (total virus-mediated cell death; 4 replicates) were also prepared. The cultures were then incubated at 37° C. in a humidified atmosphere of 5% CO2 in air for 5 days.
A fresh solution of 5 mg/mL MTT was prepared in 0.01 M phosphate buffered saline, pH 7.2 and 20 μL added to each culture. The cultures were further incubated as before for 2 hours. They were then mixed by pipetting up and down, and 170 microliters of Triton X-100 in acidified isopropanol (10% v/v Triton X-100 in 1:250 mixture of concentrated HCl in isopropanol) were added and the cultures were mixed again by pipetting up and down. When the formazan deposit was fully solubilized by further mixing, the absorbance (OD) of the cultures was measured at 540 nm and 690 nm wavelength (690 nm readings were used as blanks for artefacts between wells). The percent protection for each treated culture was then calculated from the equation:
OD drug-treated cultures)−(OD untreated virus control cultures) % Protection=100%
(OD uninfected cultures)−(OD untreated virus control cultures)
The IC50 was then obtained from graph plots of percentage protection versus log10 drug concentration.

| SMILES | IC50 [1] [nM] | IC50 [2] [nM] | melting point [°C] |
| --- | --- | --- | --- |
| CC(C)(C)NC(=O)[C@@H]1C[C@@H]2CCCC[C@@H]2CN1C[C@@H](O)[C@H](Cc1ccccc1)NC(=O)[C@@H](NC(=O)c1cccnc1)C(C)(C)S(C)(=O)=O [Example 7, N-tert-butyl-1,2,3,4,4a(S),5,6,7,8,8a(S)-decahydro-2-[2(R)-hydroxy-3(S)-[[3-(methanesulfonyl)-N-[(3-pyridyl)carbonyl]-L-valyl]amino]-4-phenylbutyl]-3(S)-isoquinolinecarboxamide] | 2.3 | 21 |  |
| CC(C)NCC(=O)N[C@H](C(=O)N[C@@H](Cc1ccccc1)[C@H](O)CN1C[C@H]2CCCC[C@H]2C[C@H]1C(=O)NC(C)(C)C)C(C)(C)S(C)(=O)=O [Example 92, N-tert-Butyl-1,2,3,4,4a(S),5,6,7,8,8a(S)-decahydro-2-[2(R)-hydroxy-3(S)-[[N-[2-(isopropylamino)acetyl]-3-(methanesulfonyl)-L-valyl]amino]-4-phenylbutyl]-3(S)-isoquinolinecarboxamide] | 4 | 33 |  |
| CC(C)(C)NC(=O)[C@@H]1C[C@@H]2CCCC[C@@H]2CN1C[C@@H](O)[C@H](Cc1ccccc1)NC(=O)[C@@H](n1cc[nH]c1=O)C(C)(C)S(C)(=O)=O |  |  | 228 to 230 |
| Cc1csc(N[C@H](C(=O)N[C@@H](Cc2ccccc2)[C@H](O)CN2C[C@H]3CCCC[C@H]3C[C@H]2C(=O)NC(C)(C)C)C(C)(C)S(C)(=O)=O)n1 [Example 138, N-tert-Butyl-1,2,3,4,4a(S),5,6,7,8,8a(S)-decahydro-2-[2(R)-hydroxy-3(S)-[[3-(methanesulfonyl)-N-(4-methyl-2-thiazolyl)-L-valyl]amino]-4-phenylbutyl]-3(S)-isoquinolinecarboxamide] | 7.8 | 65 |  |
| CC(C)(C)NC(=O)[C@@H]1C[C@@H]2CCCC[C@@H]2CN1C[C@@H](O)[C@H](Cc1ccccc1)NC(=O)[C@@H](NS(C)(=O)=O)C(C)(C)S(C)(=O)=O |  |  | 135 to 160 |
| CC(C)(C)NC(=O)[C@@H]1C[C@@H]2CCCC[C@@H]2CN1C[C@@H](O)[C@H](Cc1ccccc1)NC(=O)[C@@H](NC(=O)NCc1ccccc1)C(C)(C)S(C)(=O)=O [Example 168, 2-[3(S)-[[N-(Benzylcarbamoyl)-3-(methanesulfonyl)-L-valyl]amino]-2(R)-hydroxy-4-phenylbutyl]-N-tert-butyl-1,2,3,4,4a(S),5,6,7,8,8a(S)-decahydro-3(S)-isoquinolinecarboxamide] | 0.5 | 16 |  |
| CC(C)(C)NC(=O)[C@@H]1C[C@@H]2CCCC[C@@H]2CN1C[C@@H](O)[C@H](Cc1ccccc1)NC(=O)[C@@H](Nc1nc(CO)cs1)C(C)(C)S(C)(=O)=O |  |  | 126 |
| CC(C)(C)NC(=O)[C@@H]1C[C@@H]2CCCC[C@@H]2CN1C[C@@H](O)[C@H](Cc1ccccc1)NC(=O)[C@@H](NC(=O)COc1cccc(F)c1)C(C)(C)S(C)(=O)=O |  |  | 197 to 199 |
| COC(=O)N[C@H](C(=O)N[C@@H](Cc1ccccc1)[C@H](O)CN1C[C@H]2CCCC[C@H]2C[C@H]1C(=O)NC(C)(C)C)C(C)(C)S(C)(=O)=O [Example 4, N-tert-Butyl-1,2,3,4,4a(S),5,6,7,8,8a(S)-decahydro-2-[2(R)-hydroxy-3(S)-[[3-(methanesulfonyl)-N-(methoxycarbonyl)-L-valyl]amino]-4-phenylbutyl]-3(S)-isoquinolinecarboxamide] | 2.8 | 14 | 190 to 194 |
| CC(C)(C)NC(=O)[C@@H]1C[C@@H]2CCCC[C@@H]2CN1C[C@@H](O)[C@H](Cc1ccccc1)NC(=O)[C@@H](NC(=O)COc1ccccn1)C(C)(C)S(C)(=O)=O [Example 152] | 1.2 | 17 |  |
| CN(Cc1cccnc1)C(=O)N[C@H](C(=O)N[C@@H](Cc1ccccc1)[C@H](O)CN1C[C@H]2CCCC[C@H]2C[C@H]1C(=O)NC(C)(C)C)C(C)(C)S(C)(=O)=O [Example 170, N-tert-Butyl-1,2,3,4,4a(S),5,6,7,8,8a(S)-decahydro-2-[2(R)-hydroxy-3(S)-[[3-(methanesulfonyl)-N-[N-methyl-N-[(3-pyridyl)methyl]carbamoyl]-L-valyl]amino]-4-phenylbutyl]-3(S)-isoquinolinecarboxamide] | 1 | 13 |  |
| CC(C)(C)NC(=O)[C@@H]1C[C@@H]2CCCC[C@@H]2CN1C[C@@H](O)[C@H](Cc1ccccc1)NC(=O)[C@@H](NC(=O)N1CCOCC1)C(C)(C)S(C)(=O)=O [Example 106, N-tert-Butyl-1,2,3,4,4a(S),5,6,7,8,8a(S)-decahydro-2-[2(R)-hydroxy-3(S)-[[3-(methanesulfonyl)-N-(morpholinocarbonyl)-L-valyl]amino]-4 phenylbutyl]-3(S)-isoquinolinecarboxamide] | 10.7 | 60 |  |
| CC(C)(C)NC(=O)[C@@H]1C[C@@H]2CCCC[C@@H]2CN1C[C@@H](O)[C@H](Cc1ccccc1)NC(=O)[C@@H](NC(=O)c1ccc(Cl)nc1)C(C)(C)S(C)(=O)=O [Example 16, N-tert-Butyl-2-[3-(S)-[[N-[(6-chloro-3-pyridyl)carbonyl]-3-(methanesulfonyl)-L-valyl]amino]-2(R)-hydroxy-4-phenylbutyl]-1,2,3,4,4a(S),5,6,7,8,8a(S)-decahydro-3(S)-isoquinolinecarboxamide] | 1 | 12 |  |
| CC(C)(C)NC(=O)[C@@H]1C[C@@H]2CCCC[C@@H]2CN1C[C@@H](O)[C@H](Cc1ccccc1)NC(=O)[C@@H](NC(=O)CNc1ccccc1)C(C)(C)S(C)(=O)=O [Example 93, N-tert-Butyl-1,2,3,4,4a(S),5,6,7,8,8a(S)-decahydro-2-[2(R)-hydroxy-3(S)-[3-(methanesulfonyl)-N-(N-phenylglycyl)-L-valyl]amino]-4-phenylbutyl-3(S)-isoquinolinecarboxamide] | 0.5 | 8 |  |
| CC(C)(C)NC(=O)[C@@H]1C[C@@H]2CCCC[C@@H]2CN1C[C@@H](O)[C@H](Cc1ccccc1)NC(=O)[C@@H](NC(=O)c1cccc(F)c1)C(C)(C)S(C)(=O)=O [Example 40, N-tert-Butyl-2-[3-(S)-[[N-(3-fluorobenzoyl)-3-(methanesulfonyl)-L-valyl]amino]-2(R)-hydroxy-4-phenylbutyl]-1,2,3,4,4a(S),5,6,7,8,8a(S)-decahydro-3(S)-isoquinolinecarboxamide] | 1.4 | 19 |  |
| CC(C)(C)NC(=O)[C@@H]1C[C@@H]2CCCC[C@@H]2CN1C[C@@H](O)[C@H](Cc1ccccc1)NC(=O)[C@@H](NCc1ccccc1)C(C)(C)S(C)(=O)=O [Example 112, 2-[3(S)-[[N-Benzyl-3-(methanesulfonyl)-L-valyl]amino]-2(R)-hydroxy-4-phenylbutyl]-N-tert-butyl-1,2,3,4,4a(S),5,6,7,8,8a(S)-decahydro-3(S)-isoquinolinecarboxamide] | 7.5 | 94 |  |
| CC(C)(C)NC(=O)[C@@H]1C[C@@H]2CCCC[C@@H]2CN1C[C@@H](O)[C@H](Cc1ccccc1)NC(=O)[C@@H](NC(=O)c1ccoc1)C(C)(C)S(C)(=O)=O [Example 28, N-tert-Butyl-2-[3-(S)-[[N-(3-furoyl)-3-(methanesulfonyl)-L-valyl]amino]-2(R)-hydroxy-4-phenylbutyl]-1,2,3,4,4a(S),5,6,7,8,8a(S)-decahydro-3(S)-isoquinolinecarboxamide] | 1 | 21 |  |
| CC(C)(C)NC(=O)[C@@H]1C[C@@H]2CCCC[C@@H]2CN1C[C@@H](O)[C@H](Cc1ccccc1)NC(=O)[C@@H](NC(=O)COc1cccnc1)C(C)(C)S(C)(=O)=O [Example 3, N-tert-butyl-1,2,3,4,4a(S),5,6,7,8a(S)-decahydro-2-[2(R)-hydroxy-3(S)-[[3-(methanesulfonyl)-N-[2-(3-pyridyloxy)acetyl]-L-valyl]amino]-4-phenylbutyl]-3(S)-isoquinolinecarboxamide] | 0.6 | 17 |  |
| CC(C)(C)NC(=O)[C@@H]1C[C@@H]2CCCC[C@@H]2CN1C[C@@H](O)[C@H](Cc1ccccc1)NC(=O)[C@@H](NC(=O)COc1cccnn1)C(C)(C)S(C)(=O)=O [Example 154] | 0.5 | 16 |  |

— US6472404B1 (priority 2000, dated 2002)
